Reference: paper PMC9866905, “Dehydroeburicoic Acid, a Dual Inhibitor against Oxidative Stress in Alcoholic Liver Disease” (Pharmaceuticals, 2022)

Columns and labels:
Keap1 = Keap1 (Homo sapiens, UniProt Q14145); experiment: fluorescence polarization competition with labeled Nrf2 (ETGE) peptide, dose-response; supported by CETSA in LO2 lysate (ΔTm ca. […] °C); assay type: binding; conditions: read-out: EC50 (the source's name)
GSK3β = target: T1, GSK3β (Homo sapiens, UniProt P49841); experiment: ADP-Glo luminescent kinase assay, dose-response; supported by CETSA in LO2 lysate (ΔTm ca. […] °C); assay type: biochemical
T1 construct: gene GSK3B
T1 sequence (P49841 whole entry): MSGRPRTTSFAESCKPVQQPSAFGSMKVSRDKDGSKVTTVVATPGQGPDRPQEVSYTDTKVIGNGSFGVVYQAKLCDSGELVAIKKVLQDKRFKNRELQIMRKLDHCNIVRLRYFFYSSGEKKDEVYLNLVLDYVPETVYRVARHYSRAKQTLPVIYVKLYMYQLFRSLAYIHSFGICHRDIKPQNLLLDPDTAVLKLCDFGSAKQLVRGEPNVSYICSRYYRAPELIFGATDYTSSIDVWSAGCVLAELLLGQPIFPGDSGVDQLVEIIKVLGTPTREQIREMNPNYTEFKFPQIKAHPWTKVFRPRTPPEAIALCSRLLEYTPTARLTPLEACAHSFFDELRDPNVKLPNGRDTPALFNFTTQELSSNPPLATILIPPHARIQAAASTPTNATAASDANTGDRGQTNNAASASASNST

Sequence of Keap1 (Q14145 whole entry): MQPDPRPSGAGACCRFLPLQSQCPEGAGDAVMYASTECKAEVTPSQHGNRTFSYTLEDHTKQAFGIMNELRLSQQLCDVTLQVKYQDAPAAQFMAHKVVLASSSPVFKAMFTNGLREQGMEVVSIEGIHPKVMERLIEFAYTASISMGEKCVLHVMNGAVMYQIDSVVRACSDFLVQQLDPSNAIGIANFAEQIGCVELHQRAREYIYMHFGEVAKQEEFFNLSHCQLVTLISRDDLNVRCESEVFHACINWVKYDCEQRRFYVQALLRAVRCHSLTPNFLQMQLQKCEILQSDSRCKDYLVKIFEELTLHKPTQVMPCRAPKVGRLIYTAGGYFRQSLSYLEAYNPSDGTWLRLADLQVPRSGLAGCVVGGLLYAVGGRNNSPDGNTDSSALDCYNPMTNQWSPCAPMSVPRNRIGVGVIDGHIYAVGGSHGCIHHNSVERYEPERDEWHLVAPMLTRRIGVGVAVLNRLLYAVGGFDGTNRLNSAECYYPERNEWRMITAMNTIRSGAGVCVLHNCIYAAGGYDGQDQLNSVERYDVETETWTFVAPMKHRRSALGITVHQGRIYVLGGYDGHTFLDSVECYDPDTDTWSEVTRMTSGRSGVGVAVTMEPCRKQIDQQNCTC

Which results are given for `C=C(CC[C@@H](C(=O)O)[C@H]1CC[C@@]2(C)C3=CC[C@H]4C(C)(C)[C@@H](O)CC[C@]4(C)C3=CC[C@]12C)C(C)C` [compound 1, Dehydroeburicoic acid]?
IC50 (Keap1): 14.1 ± 0.1 µM; EC50 (GSK3β): 8 ± 0.7 µM
